Data published in patent US20160193240A1, “Ulmoside-A: Useful For Prevention Or Cure Of Metabolic Diseases” (COUNCIL OF SCIENTIFIC & INDUSTRIAL RESEARCH, priority 2013, published 2016).

What was measured:
C2C12 myotubes = test: Western blot of PGC-1α, PPAR and GLUT4 in C2C12 myotubes; type: cell-based, mouse; conditions: 10 nM, 24 or 48 hours
Description: B. ULMA induces protein levels of PGC-1α, PPARα and Glut4. C2C12 myotubes in 10 cm dish were treated with vehicle (DMSO) or 10 nM ULMA in DMSO for 24 or 48 h followed by western blotting with indicated antibodies. Data is representative of three independent experiments showing identical pattern.
Adiponectin enhances transcription of genes regulating fatty acid transport, fatty acid-oxidation and mitochondrial uncoupling proteins in skeletal muscle and myotubes (T. Kadowaki, T. Yamauchi, N. Kubota, K. Hara, K. Ueki, K. Tobe. J Clin Invest. 116(7): 1784-92. 2006; S. Dridi, M. Taouis. Journal of Nutritional Biochemistry 20 (2009): 831-839. 2009; M. Iwabu, T. Yamauchi, M. Okada-Iwabu, K. Sato, T. Nakagawa, M. Funata, M. Yamaguchi, S. Namiki, R. Nakayama, M. Tabata, H. Ogata, N. Kubota, I. Takamoto, Y. K. Hayashi, N. Yamauchi, H. Waki, M. Fukayama, I. Nishino, K. Tokuyama, K. Ueki, Y. Oike, S. Ishii, K. Hirose, T. Shimizu, K. Touhara, T. Kadowaki. Nature; 464(7293):1313-1319. 2010). The ability of ULMA to influence expression of these genes were checked in c2c12 myotubes. C2C12 myotubes in 6 well plates were treated with 10 nM ULMA or vehicle (DMSO) for 12 hours or 24 hours. Following treatment, the cells were washed with ice-cold PBS and RNA was extracted using Trizol (Ambion) according to manufacturer's instructions. The RNAs were quantitated using a spectrophotometer (nanophotometer; Implen GMBH) and 1 μg RNA was used to prepare cDNA using a cDNA synthesis kit (Applied Biosystems). cDNAs were then used for quantitative real-time PCR for indicated genes (FIG. 3A) using Veriquest SYBR green QRT-PCR mastermix (US Biologicals) and a Roche lightcycler 480 thermal cycler (Roche Diagnostics). Beta-actin was used as normalizing control. The relative mRNA level was quantitated using ddCT method. […] Adiponectin is also known to induce muscle and adipose glucose transporter 4 (GLUT4) expressions; and the ability of ULMA to induce the expression of GLUT4, PPAR and PGC-1α was investigated by western blotting. […]

db/db mice = test: Random (fed) blood glucose in db/db mice; type: in vivo, mouse; conditions: 5 mg/kg ULMA for 15 d
Description: 8 week old db/db mice were treated with vehicle (V; 1% gum acacia) or with 5 mg/kg ULMA for 15 days and the fed blood glucose was measured by a glucometer (Gluco Dr. Super sensor; that is capable of measuring 10-900 mg/dl glucose) ** p<0.01, ***p<0.005, n=6.
8 week old female db/db mice (n=6) weighing 40-50 g were divided into 2 groups and maintained as above. Control groups received vehicle (1% gum acacia) and ULMA groups received 5 mg/kg bw ULMA in 1% gum acacia for […]. Body weight and blood glucose were measured at the beginning and end of the studies.

SMILES: O=C1c2c(cc(O)c([C@@H]3O[C@H](CO)[C@@H](O)[C@H](O)[C@H]3O)c2O)O[C@@H](c2ccc(O)c(O)c2)[C@@H]1O [ULMA, (2S,3S)-(+)-3′,4′,5,7-tetrahydroxydihydroflavonol-6-C-β-D-glucopyranoside]
- GLUT4 protein level (C2C12 myotubes): induced protein levels
- PGC-1α protein level (C2C12 myotubes): induced protein levels
- PPAR protein level (C2C12 myotubes): induced protein levels
- fed blood glucose in comparison to vehicle treated control mice (db/db mice): significantly reduced fed blood glucose
